Data set [1] has as its system zebrafish larvae. Put plainly: Bioconcentration factors (BCF) of PFAS in zebrafish larvae. As to conditions: zebrafish larvae, 120 hpf, three replicates; for BCF 0.5µM: 0.5 µM exposure; for BCF 5µM: 5 µM exposure. The procedure: (§1) Zebrafish embryos were collected immediately after spawning, within 1 h, and subsequently transferred to 24-well plates with 1mL of facility water ( 0.036g sea salt, 0.15g sodium bicarbonate in 2L of reverse osmosis water). […] Three well replicates on the same plate were conducted for each concentration of individual chemical. […] Seven batches of experiments were performed to test all 74 PFAS. DMSO controls were incorporated in each batch of exposure experiments. Three replicates were performed for each treatment group, and 20 embryos were used for each replicate. […] For daily replenishment, 2.5mL of old exposure medium were replaced with freshly prepared medium every 24 h from 24 to 96 h post fertilization (hpf). Hatched or dead embryo numbers were recorded every 24 hpf, after which dead embryos were discarded from the growth media. Dead embryos or unhatched embryos were not used for PFAS measurement because the metabolism of PFAS might have been impacted. Zebrafish larvae collection occurred at 120 hpf. First, the larvae were anesthetized by cooling the plate in ice water (0–4°C) for ∼20 min . Then 8–15 larvae in each well were transferred into 1.5-mL tubes. Exposure media was carefully removed, and then the larvae were weighed (wet weight) after blotting excess water with a paper towel. […] Samples were stored at −80 °C until further chemical analysis was performed. Survival rate and hatching rate were calculated by summarizing all the documented data from the whole treatment duration. […] The exposure experiment of PFOSA was repeated using the same procedure as described above.
(§2) Each sample was spiked with 2μL of 0.2μg/mL mass-labeled PFAS mixture. Following this, 500μL of dichloromethane/methanol (2:1, vol/vol) was added to each sample for PFAS extraction. Larvae were then homogenized via ultrasonic probe, followed by 30 min of shaking and 30 min of sonication. Each sample was centrifuged at 14,000×g for 5 min, after which the supernatant was transferred to new tubes. Extraction was repeated once and the two supernatants were combined, evaporated under nitrogen flow, and reconstituted in 200μL of methanol for MS analysis.
(§3) Three microliters of each zebrafish extract was applied to a C18 column ( 1.5μm; 2.1mm×50mm; Thermo Scientific) and analyzed using a Vanquish ultra-HPLC system (Thermo Fisher Scientific) coupled to a Q Exactive high-resolution mass spectrometer (Thermo Fisher Scientific). The sampler and column compartments were maintained at 4°C and 40°C, respectively. The aqueous mobile phase solution (A) consisted of water, whereas the organic mobile phase solution (B) consisted of acetonitrile. […] MS data was acquired in full scan mode (100–1000 m/z, 70,000 mass resolution, 3×10^6 maximum ions collected per 100 ms), and tandem MS (MS/MS) data was recorded by all-ion fragmentation (AIF) mode. Negative and positive ion modes were carried out simultaneously at a 10-min method duration. […] An overview of the analyses conducted on the various PFAS is available in Table S2.
GraphPad Prism (version 7.0.4; GraphPad Software) and R studio (version 1.1.456; R Studio Inc.) software was used, and an ANOVA with Dunnett tests was employed to evaluate the statistical significance of the percentage hatched and mortality rate. Exponential regressions were used to determine the relationships between bioconcentration factor (BCF) and binding affinities ( Kd ) to L-FABP.

Data set [2] addresses T1, recombinant human liver carboxylesterase 1 (hCES1) (Homo sapiens, UniProt P23141).
T1 construct: purchased Sigma Aldrich
T1 sequence (P23141 18-567): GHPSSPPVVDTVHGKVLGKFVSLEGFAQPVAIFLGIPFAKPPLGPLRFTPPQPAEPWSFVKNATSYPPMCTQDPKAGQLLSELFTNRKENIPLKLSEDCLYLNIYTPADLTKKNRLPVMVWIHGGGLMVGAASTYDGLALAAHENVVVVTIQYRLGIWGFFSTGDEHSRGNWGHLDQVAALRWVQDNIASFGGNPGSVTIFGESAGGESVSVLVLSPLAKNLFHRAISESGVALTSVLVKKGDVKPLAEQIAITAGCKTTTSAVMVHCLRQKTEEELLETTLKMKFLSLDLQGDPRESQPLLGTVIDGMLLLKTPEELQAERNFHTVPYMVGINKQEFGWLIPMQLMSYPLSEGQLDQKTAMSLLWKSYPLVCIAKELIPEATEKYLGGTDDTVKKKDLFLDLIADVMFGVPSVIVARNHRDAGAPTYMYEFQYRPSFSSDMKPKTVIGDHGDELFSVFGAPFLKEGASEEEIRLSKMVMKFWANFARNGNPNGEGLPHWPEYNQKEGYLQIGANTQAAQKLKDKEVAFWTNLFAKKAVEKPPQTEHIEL
Kind of data set: Hydrolysis of PFAS by recombinant hCES1. The format is in vitro ADME. As to conditions: 10 μM PFAS, single replicates; for Parent PFAS, hCES1 (%): 100 μg/L hCES1, phosphate buffer 37 °C 1 hour, axis %Control; for Parent PFAS, Control (%): without hCES1, phosphate buffer 37 °C 1 hour. The procedure: Because recombinant zebrafish CES is not available, we decided to use hCES1 to evaluate the structure-related hydrolysis of PFAS. […] In vitro enzymatic activity experiments were carried out for 1 h in 1.5-mL tubes with 100μL phosphate buffer ( 137 mM sodium chloride, 10 mM phosphate buffer, 2.7 mM potassium chloride; pH 7.4) at 37°C with shaking. Reaction mixtures contained different concentrations of PFAS (1, 10, and 50μM ) and 100μg/L hCES1. […] To stop the hydrolysis reaction, four times the volume of ice-cold methanol was added. The hCES1 protein was precipitated out by centrifugation ( 14,000×g , 10 min). The supernatant was transferred to a new tube and analyzed via MS for the analysis of parent compounds and suspected metabolites (i.e., carboxylates).

Data set [3] deals with zebrafish embryos. The note with it: for pericardial oedemata, Mean / spinal curvature, Mean / tail dysplasia, Mean: 5μM through 120 hpf, malformation rate; for Lethal effects on zebrafish larvae: 5μM, 5 d; for Mortality (%): 5 µM, exposure through 120 hpf.
Data set [4] deals with liver fatty acid binding protein (L-FABP). Details: method as in Yang et al. 2020. The note with it: ref Yang et al. 2020, cited from earlier work; for Kd: read-out: Kd (μM), L-FABP binding affinity.
The subject of data set [5] is zebrafish larvae. Kind of data set: Nontargeted analysis of PFAS metabolites in zebrafish larvae (high-resolution MS). As for the experimental part:
as §1, §2, §3
Nontargeted data analysis was accomplished with R scripts that are available on Github (https://github.com/huiUofT/PFASmetabolite). […] The peak features were matched across samples with a mass tolerance of 2.5 ppm and a RT window of 20 s, after RT adjustment. The ratio of abundances of each feature in treatment groups relative to the control group (DMSO) was calculated. The p -values of the difference between two groups were determined by student’s t -tests.

Several values for one entry are separate records, joined by “and”; a condition that tells them apart may be missing. Equal values may be shown once. Entries after “also recorded” stand apart in the source; their conditions may differ. Read-outs that look alike come from different tables or passages of the source.

As for `CNS(=O)(=O)C(F)(F)C(F)(F)C(F)(F)C(F)(F)C(F)(F)C(F)(F)C(F)(F)C(F)(F)F` [compound 16, N-Methylperfluorooctanesulfonamide], in data set [1], the “BCF 0.5µM” value came out at 292.232 L/kg and the “BCF 5µM” value worked out at 89 ± 9.4 L/kg. In data set [2], the “Parent PFAS, hCES1 (%)” value is 89.36% and 92.00% and 92.59%; the “Parent PFAS, Control (%)” value was 93.34% and 78.46% and 128.20%. For the same compound, in data set [3], the “pericardial oedemata, Mean” value was found to be 0.00%; the “spinal curvature, Mean” value was 0.00%; the “tail dysplasia, Mean” value was found to be 0.00%; the “Lethal effects on zebrafish larvae” value is recorded as “strongest lethal effects”. Also, in data set [4], the L-FABP ligand result was “not identified as L-FABP ligands”.
Consider `C=C(C)C(=O)OCCC(F)(F)C(F)(F)C(F)(F)C(F)(F)C(F)(F)C(F)(F)F` [compound 2, 6:2 Fluorotelomer methacrylate], for which the “Metabolites / hydrolysis products in zebrafish larvae” value in data set [5] (in vivo, nontargeted analysis) is reported as “hydrolysis products (i.e., sulfated 6:2 FTOH) were also detected”. Further, in data set [3], the “pericardial oedemata, Mean” value came to 3.33%; the “spinal curvature, Mean” value stood at 1.11%; the “tail dysplasia, Mean” value was 4.44%; the “Mortality (%)” value turned out to be 0%.
As for `OCCC(F)(F)C(F)(F)C(F)(F)C(F)(F)C(F)(F)C(F)(F)F` [compound 70, 6:2 Fluorotelomer alcohol], the “Profile of metabolites (%): Alcohol” value in data set [5] (zebrafish larvae, Figure 5B) was determined as 0.00%. Moreover, the “Peak intensity: Alcohol (parent FTOH)” value in data set [5] (zebrafish larvae, single replicates, Figure 5A) worked out at 0. Besides, in data set [3], the “pericardial oedemata, Mean” value is 0.00%; the “spinal curvature, Mean” value stood at 0.00%; the “tail dysplasia, Mean” value was 0.00%; the “Mortality (%)” value was found to be 0%.
One may read the Kd as the concentration at which binding is half-saturated. Turning to `NS(=O)(=O)C(F)(F)C(F)(F)C(F)(F)C(F)(F)C(F)(F)C(F)(F)C(F)(F)C(F)(F)F` [compound 60, Perfluorooctanesulfonamide], the “BCF 0.5µM” value in data set [1] is 501 ± 19 L/kg and 501.032 L/kg. For the same compound, in data set [2], the “Parent PFAS, hCES1 (%)” value was 83.48% and 89.94% and 97.43%; the “Parent PFAS, Control (%)” value was 81.21% and 101.71% and 117.08%. Besides, in data set [3], the “pericardial oedemata, Mean” value is 0.00%; the “spinal curvature, Mean” value is listed as 0.00%; the “tail dysplasia, Mean” value is listed as 0.00%; the “Lethal effects on zebrafish larvae” value is given as “strongest lethal effects”. The “Mortality (%)” value in data set [3] is 100%. In addition, the “Lethal effects on zebrafish larvae” value in data set [3] (listed as PFOSA) is given as “no zebrafish larvae from the 5-μM group survived; also recorded: All zebrafish larvae were dead”. The Kd in data set [4] is 5.87 µM.
`O=C(O)C(F)(F)OC(F)(F)C(F)(F)OC(F)(F)C(F)(F)OC(F)(F)C(F)(F)C(F)(F)C(F)(F)F` [compound 34, Perfluoro-3,6,9-trioxatridecanoic acid]: in data set [1], the “BCF 0.5µM” value was 585 ± 174 L/kg and 584.908 L/kg; the “BCF 5µM” value was found to be 93 ± 19 L/kg. Also, in data set [3], the “pericardial oedemata, Mean” value turned out to be 0.00%; the “spinal curvature, Mean” value turned out to be 0.00%; the “tail dysplasia, Mean” value was determined as 0.00%; the “Mortality (%)” value is 10%. Also, the dissociation constant Kd in data set [4] is 8.22 µM.
In the case of `O=S(=O)([O-])C(F)(F)C(F)(F)C(F)(F)C(F)(F)C(F)(F)C(F)(F)F.[K+]` [compound 26, Potassium perfluorohexanesulfonate], in data set [1], the “BCF 0.5µM” value stood at 55.2382 L/kg and the “BCF 5µM” value came to 30 ± 0.71 L/kg. For the same compound, in data set [3], the “pericardial oedemata, Mean” value was 0.00%; the “spinal curvature, Mean” value is 0.00%; the “tail dysplasia, Mean” value is 0.00%; the “Mortality (%)” value is listed as 3.3%. The Kd in data set [4] is 11.2 µM.
On to `O=C(O)C(F)(F)C(F)(F)C(F)(F)OC(F)(F)F` [compound 28, Perfluoro(4-methoxybutanoic) acid], for which, in data set [1], the “BCF 0.5µM” value amounted to 5.238 L/kg and the “BCF 5µM” value was found to be 1.4 ± 0.17 L/kg. In addition, in data set [3], the “pericardial oedemata, Mean” value was determined as 0.00%; the “spinal curvature, Mean” value is given as 2.22%; the “tail dysplasia, Mean” value is 0.00%; the “Mortality (%)” value was 1.1%. In addition, in data set [4], the Kd was 815 µM.

Values taken from publication PMC8294803, “A Roadmap to the Structure-Related Metabolism Pathways of Per- and Polyfluoroalkyl Substances in the Early Life Stages of Zebrafish (Danio rerio)” (Environmental Health Perspectives, 2021).
